From ChEMBL document CHEMBL4765295, “Synthesis, pharmacological profile and 2D-QSAR studies of curcumin-amino acid conjugates as potential drug candidates” (Eur J Med Chem, 2020)
Where “and” joins values, the source holds several entries; their conditions need not be identical. Equal entries are not always repeated.

Tests used:
[1] = system: Splenocyte; assay: Immunomodulatory activity in Swiss albino mouse splenocytes assessed as cell viability at 10 uM by measuring inhibition of stimulation index incubated for 72 hrs in presence of mitogenic stimulus phytohaemagglutinin by MTT assay relative to indomethacin; type: functional; conditions: read-out: Activity
[2] = system: Mus musculus; assay: Analgesic activity in albino mouse assessed protection against acetic acid-induced abdominal writhing at 10 mg/kg, ip pretreated for 1 hr followed by acetic acid challenge and measured starting 5 mins post acetic acid challenge for 10 mins relative to indomethacin; type: functional; conditions: time 75 min, 1.25 h
[3] = system: Rattus norvegicus; assay: Anti-inflammatory activity in Wistar rat assessed as inhibition of carrageenan-induced paw edema at 10 mg/kg, ip pretreated for 1 hr followed by carrageenan challenge and measured after 3 hr relative to control (reference value: 0.00 +/-0.1 %); type: functional; conditions: time 4 hrs
[4] = system: Candida albicans; assay: Antifungal activity against Candida albicans incubated for 18 to 24 hrs by CLSI method; type: functional; conditions: time 18-24 hrs
[5] = system: Mus musculus; assay: Analgesic activity in albino mouse assessed as forepaw licking/jumping latency time at 10 mg/kg, ip measured after 90 mins by hot plate test (reference value: 2.72 +/- 0.01 sec); type: functional; conditions: 1.5 h
[6] = system: Rattus norvegicus; assay: Antiinflammatory activity in Wistar rat model of carrageenan-induced paw edema assessed as reduction in thickness of paw edema at 10 mg/kg, ip pretreated for 1 hr followed by carrageenan challenge and measured after 2 hrs (reference value: 2.06 +/-0.09 mm); type: functional; conditions: time 3 hrs
[7] = system: Pseudomonas aeruginosa; assay: Antibacterial activity against Pseudomonas aeruginosa ATCC 27853 incubated for 18 hrs by agar dilution assay; type: functional
[8] = Ulcerogenic activity in fasted albino mouse assessed as average severity of ulcers in gastric mucosa at 10 mg/kg, po for 3 days (reference value: 0); type: toxicity, organism-based; conditions: in vivo, 72 h, time 3 day
[9] = system: Rattus norvegicus; assay: Antiinflammatory activity in Wistar rat model of carrageenan-induced paw edema assessed as reduction in thickness of paw edema at 10 mg/kg, ip pretreated for 1 hr followed by carrageenan challenge and measured after 1 hr (reference value: 2.41 +/-0.05 mm); type: functional; conditions: time 1 hr after carrageenan
[10] = system: Rattus norvegicus; assay: Antiinflammatory activity in Wistar rat model of carrageenan-induced paw edema assessed as reduction in thickness of paw edema at 10 mg/kg, ip pretreated for 1 hr followed by carrageenan challenge and measured after 3 hrs (reference value: 1.79 +/-0.07 mm); type: functional; conditions: time 4 hrs
[11] = system: Rattus norvegicus; assay: Anti-inflammatory activity in Wistar rat assessed as inhibition of carrageenan-induced paw edema at 10 mg/kg, ip pretreated for 1 hr followed by carrageenan challenge and measured after 4 hr relative to control (reference value: 0.00 +/-0.4 %); type: functional; conditions: time 5 hrs
[12] = system: Staphylococcus aureus; assay: Antibacterial activity against Staphylococcus aureus ATCC 25923 incubated for 18 hrs by agar dilution method; type: functional
[13] = system: Mus musculus; assay: Analgesic activity in albino mouse assessed as protection at 10 mg/kg, ip measured after 120 mins by hot plate test (reference value: 0 %); type: functional; conditions: 2 h
[14] = system: Mus musculus; assay: Analgesic activity in albino mouse assessed protection against acetic acid-induced abdominal writhing at 10 mg/kg, ip pretreated for 1 hr followed by acetic acid challenge and measured starting 5 mins post acetic acid challenge for 10 mins relative to control (reference value: 0 %); type: functional; conditions: time 75 min, 1.25 h
[15] = system: Streptococcus pyogenes; assay: Antibacterial activity against Streptococcus pyogenes ATCC 19615 incubated for 18 hrs by agar dilution method; type: functional
[16] = system: Rattus norvegicus; assay: Antiinflammatory activity in Wistar rat model of carrageenan-induced paw edema assessed as reduction in thickness of paw edema at 10 mg/kg, ip pretreated for 1 hr followed by carrageenan challenge and measured after 4 hrs (reference value: 1.40 +/-0.10 mm); type: functional; conditions: time 5 hrs
[17] = system: Mus musculus; assay: Analgesic activity in albino mouse assessed reduction in acetic acid-induced abdominal writhing by measuring writing reflex at 10 mg/kg, ip pretreated for 1 hr followed by acetic acid challenge and measured starting 5 mins post acetic acid challenge for 10 mins (reference value: 42.4 +/- 1.02); type: functional; conditions: time 75 min, 1.25 h
[18] = system: Mus musculus; assay: Analgesic activity in albino mouse assessed as protection at 10 mg/kg, ip measured after 120 mins by hot plate test relative to indomethacin; type: functional; conditions: 2 h
[19] = system: Rattus norvegicus; assay: Anti-inflammatory activity in Wistar rat assessed as inhibition of carrageenan-induced paw edema at 10 mg/kg, ip pretreated for 1 hr followed by carrageenan challenge and measured after 1 hr relative to control (reference value: 0.00 +/-0.02 %); type: functional; conditions: time 2 hrs
[20] = system: Mus musculus; assay: Analgesic activity in albino mouse assessed as protection at 10 mg/kg, ip measured after 30 mins by hot plate test (reference value: 0 %); type: functional; conditions: 0.5 h
[21] = system: Salmonella typhimurium; assay: Antibacterial activity against Salmonella typhimurium ATCC 19430 incubated for 18 hrs by agar dilution assay; type: functional, Salmonella enterica subsp. enterica serovar Typhimurium; conditions: Salmonella enterica
[22] = system: Mus musculus; assay: Analgesic activity in albino mouse assessed as protection at 10 mg/kg, ip measured after 90 mins by hot plate test (reference value: 0 %); type: functional; conditions: 1.5 h
[23] = system: Mus musculus; assay: Analgesic activity in albino mouse assessed as forepaw licking/jumping latency time at 10 mg/kg, ip measured after 30 mins by hot plate test (reference value: 5.02 +/- 0.09 sec); type: functional; conditions: 0.5 h
[24] = system: Rattus norvegicus; assay: Anti-inflammatory activity in Wistar rat assessed as inhibition of carrageenan-induced paw edema at 10 mg/kg, ip pretreated for 1 hr followed by carrageenan challenge and measured after 24 hr relative to control (reference value: 0.00 +/-0.3 %); type: functional; conditions: time 25 hrs
[25] = system: Rattus norvegicus; assay: Anti-inflammatory activity in Wistar rat assessed as inhibition of carrageenan-induced paw edema at 10 mg/kg, ip pretreated for 1 hr followed by carrageenan challenge and measured after 4 hr relative to indomethacin; type: functional; conditions: time 5 hrs
[26] = system: Rattus norvegicus; assay: Anti-inflammatory activity in Wistar rat assessed as inhibition of carrageenan-induced paw edema at 10 mg/kg, ip pretreated for 1 hr followed by carrageenan challenge and measured after 2 hr relative to control (reference value: 0.00 +/-0.03 %); type: functional; conditions: time 3 hrs
[27] = system: Mus musculus; assay: Analgesic activity in albino mouse assessed as forepaw licking/jumping latency time at 10 mg/kg, ip measured after 60 mins by hot plate test (reference value: 3.42 +/- 0.03 sec); type: functional; conditions: 1 h
[28] = Ulcerogenic activity in fasted albino mouse assessed as average number of ulcers in gastric mucosa at 10 mg/kg, po for 3 days (reference value: 0); type: toxicity, organism-based; conditions: in vivo, 72 h, time 3 day
[29] = Toxicity in albino mouse assessed as induction of toxic symptoms at 50 to 100 mg/kg, ip measured after 24 hrs; type: organism-based; conditions: in vivo, dose 50-100 mg/kg
[30] = Ulcerogenic activity in fasted albino mouse assessed as incidence of gastric ulceration at 10 mg/kg, po for 3 days (reference value: 0 %); type: toxicity, organism-based; conditions: in vivo, 72 h, time 3 day
[31] = Ulcerogenic activity in fasted albino mouse assessed as ulcer index in gastric mucosa at 10 mg/kg, po for 3 days (reference value: 0); type: toxicity, organism-based; conditions: in vivo, 72 h, time 3 day
[32] = system: Mus musculus; assay: Analgesic activity in albino mouse assessed as forepaw licking/jumping latency time at 10 mg/kg, ip measured after 120 mins by hot plate test (reference value: 2.62 +/- 0.06 sec); type: functional; conditions: 2 h
[33] = system: Rattus norvegicus; assay: Antiinflammatory activity in Wistar rat model of carrageenan-induced paw edema assessed as reduction in thickness of paw edema at 10 mg/kg, ip pretreated for 1 hr followed by carrageenan challenge and measured after 24 hrs (reference value: 0.83 +/-0.08 mm); type: functional; conditions: time 25 hrs
[34] = system: Splenocyte; assay: Immunomodulatory activity in Swiss albino mouse splenocytes assessed as cell viability at 10 uM by measuring stimulation index incubated for 72 hrs in presence of mitogenic stimulus phytohaemagglutinin by MTT assay (reference value: 1.00 +/- 0.24); type: functional
[35] = system: Mus musculus; assay: Analgesic activity in albino mouse assessed as protection at 10 mg/kg, ip measured after 60 mins by hot plate test (reference value: 0 %); type: functional; conditions: 1 h
[36] = system: Peritoneal macrophage; assay: Antiinflammatory activity in […] mouse Peritoneal macrophages assessed as inhibition of LPS-induced NO production at 10 uM preincubated for 1 hr followed by LPS stimulation measured after 24 hrs by Griess method relative to control (reference value: 0.0 %); type: functional; parameters: scale not given: the % may be the effect or the level left; conditions: time 25 hrs
[37] = system: Peritoneal macrophage; assay: Antiinflammatory activity in […] mouse Peritoneal macrophages assessed as reduction in LPS-induced NO production by measuring reduction in stimulation index at 10 uM preincubated for 1 hr followed by LPS stimulation measured after 24 hrs by Griess method (reference value: 27.31 +/- 2.56 uM); type: functional; conditions: time 25 hrs

Row | SMILES | viability at 10 µM [1] [%] | Activity [2] [%] | inhibition in vivo at 10 mg/kg [3] [%] | MIC [4] | Time [5] [s] | Activity [6] [mm] | MIC [7] | Activity [8] | Activity [9] [mm] | Activity [10] [mm] | inhibition in vivo at 10 mg/kg [11] [%] | MIC [12] | Activity [13] [%] | Activity [14] [%] | MIC [15] | Activity [16] [mm] | Activity [17] | Activity [18] [%] | inhibition in vivo at 10 mg/kg [19] [%] | Activity [20] [%] | further results
1 | COc1cc(/C=C/C(=O)/C=C(O)/C=C/c2ccc(OC(=O)[C@@H](CCSC)NC(=O)OC(C)(C)C)c(OC)c2)ccc1OC(=O)[C@@H](CCSC)NC(=O)OC(C)(C)C | 47.7 | 87.3 | 74 | 0.5 µg/mL and 0.602 µM | 4.82 | 0.63 | 0.25 µg/mL and 0.301 µM | 0 | 1.1 | 0.47 | 89 | 0.25 µg/mL and 0.301 µM | 71 | 53.8 | 0.125 µg/mL and 0.15 µM | 0.15 | 19.6 | 169 | 58 | 2.4 | MIC [21]: 1 µg/mL and 1.2 µM; Activity [22]: 77.2%; Time [23]: 5.14 s; inhibition in vivo at 10 mg/kg [24]: 41%; inhibition in vivo at 10 mg/kg [25]: 102%; inhibition in vivo at 10 mg/kg [26]: 69%; Time [27]: 5.48 s; Activity [28]: 0; Activity [29]: Non-Toxic; Activity [30]: 0%; UI [31]: 0; Time [32]: 4.48 s; Activity [33]: 0.49 mm; Activity_index [34]: 2.53; Activity [35]: 60.2%
2 | COc1cc(/C=C/C(=O)/C=C(O)/C=C/c2ccc(OC(=O)C(C)NC(=O)OCc3ccccc3)c(OC)c2)ccc1OC(=O)C(C)NC(=O)OCc1ccccc1 (centres undefined) | 103 | 86.7 | 97 | 0.5 µg/mL and 0.642 µM | 3.22 | 0.26 | 0.25 µg/mL and 0.321 µM | 0.67 | 0.67 | 0.05 | 100 | 0.5 µg/mL and 0.642 µM | 19.1 | 53.4 | 0.125 µg/mL and 0.161 µM | 0 | 19.75 | 45.5 | 72 | 24.7 | MIC [21]: 0.5 µg/mL and 0.642 µM; Activity [22]: 18.4%; Time [23]: 6.26 s; inhibition in vivo at 10 mg/kg [24]: 100%; inhibition in vivo at 10 mg/kg [25]: 115%; inhibition in vivo at 10 mg/kg [26]: 87%; Time [27]: 5.24 s; Activity [28]: 0.67; Activity [29]: Non-Toxic; Activity [30]: 3.33%; Activity [36]: 45.41%; Activity [37]: 14.91 µM; UI [31]: 4.67; Time [32]: 3.12 s; Activity [33]: 0 mm; Activity_index [34]: 1.18; Activity [35]: 53.2%
3 | COc1cc(/C=C/C(=O)/C=C(O)/C=C/c2ccc(OC(=O)[C@@H](C)NC(=O)OCc3ccccc3)c(OC)c2)ccc1OC(=O)[C@@H](C)NC(=O)OCc1ccccc1 | 76 | 107.1 | 95 | 0.5 µg/mL and 0.642 µM | 3.42 | 0.23 | 1 µg/mL and 1.28 µM | 0 | 0.43 | 0.09 | 100 | 0.5 µg/mL and 0.642 µM | 25.2 | 66 | 0.125 µg/mL and 0.161 µM | 0 | 14.4 | 60 | 82 | 11.6 | MIC [21]: 0.5 µg/mL and 0.642 µM; Activity [22]: 25.7%; Time [23]: 5.6 s; inhibition in vivo at 10 mg/kg [24]: 49%; inhibition in vivo at 10 mg/kg [25]: 115%; inhibition in vivo at 10 mg/kg [26]: 89%; Time [27]: 3.7 s; Activity [28]: 0; Activity [29]: Non-Toxic; Activity [30]: 0%; Activity [36]: 35.45%; Activity [37]: 17.63 µM; UI [31]: 0; Time [32]: 3.28 s; Activity [33]: 0.42 mm; Activity_index [34]: 1.59; Activity [35]: 8.2%
